The experiment deals with Replicase polyprotein 1ab (Severe acute respiratory syndrome coronavirus 2, UniProt P0DTD1). The experiment can be described thus: Inhibition of recombinant SARS-CoV-2 3CLpro expressed in Escherichia coli BL21 DE3 using FAM-KTSAVLQSGFRKMEK-TAMRA fluorogenic peptide as substrate preincubated for 1 hr followed by substrate addition measured after 30 mins by FRET assay.

Molecules are shown by their SMILES.

One may read the IC50 as the concentration needed to halve the response being measured.

As to `CC(C)C[C@H](NC(=O)OCc1ccccc1)C(=O)NN(CC1CCCNC1=O)C(=O)CCl` (some centres not stated), the IC50 came to 5 nM.

`CC(C)C[C@H](NC(=O)c1cc2ccccc2[nH]1)C(=O)NN(C[C@H]1CCNC1=O)C(=O)CCl`: the IC50 worked out at 3 nM.

Source of the values: ChEMBL document CHEMBL5131547, “Novel Halomethylketone Azadipeptides for Treating COVID-19” (ACS Med Chem Lett, 2022).
